Legend:
[1] = Body weight and tolerability, SK-OV-3 study; assay type: in vivo, mice; conditions: PO
Description: SK-OV-3 cells obtained from ATCC (Rockville, Md.) were grown in McCoy's medium containing 10% fetal bovine serum and pen/strep. Exponentially growing cells were harvested and inoculated SC (5 million cells/animal) into female athymic mice. The tumor measurements and body weight changes were obtained on days 1, 3, 6, 10, 13 and 18. Tumor volume was calculated by the following formula: Tumor volume (mm^3)═(W×W)/2×L (L=length & W=width). Blood samples (˜50 μl) were isolated at 0.5, 1, 2, 4 and 8 hrs after dosing on day 18 for PK-analysis. Tumors were isolated at 0.5 hr post-dosing on day 18 for PD-analysis by ELISA. The p-erbB2 reduction, tumor volume and body weight changes in control and test compound treated animals are shown below in Table 2.

[2] = system: MDA-MB-453 tumors; assay: MDA-MB-453 xenograft tumor growth in athymic mice; assay type: in vivo, human; conditions: PO; for % Growth inhibition: 29 days
Description: The in vivo anti-tumor activity of the compounds for use in the methods of the present invention can be determined by the amount of inhibition of tumor growth by a test compound relative to a control. The tumor growth inhibitory effects of various compounds can be measured according to the method of Corbett T. H., et al., “Tumor Induction Relationships in Development of Transplantable Cancers of the Colon in Mice for Chemotherapy Assays, with a Note on Carcinogen Structure”, Cancer Res., 35, 2434-2439 (1975) and Corbett T. H., et al., “A Mouse Colon-tumor Model for Experimental Therapy”, Cancer Chemother. Rep. (Part 2)”, 5, 169-186 (1975), with slight modifications. Tumors can be induced in the left flank of mice by subcutaneous (sc) injection of 1-5 million log phase cultured tumor cells suspended in 0.1 ml RPMI 1640 medium. After sufficient time has elapsed for the tumors to become palpable (˜100-150 mm^3 in size/5-6 mm in diameter) the test animals (athymic female mice) are treated with test compound (formulated at a concentration of 10 to 15 mg/ml in 5 Gelucire or 0.5% methyl cellulose) by the intravenous (iv) or oral (po) route of administration once or twice daily for 7 to 29 consecutive days. In order to determine an anti-tumor effect, the tumor is measured in millimeters with a Vernier caliper across two diameters and the tumor size (mm^3) is calculated using the formula: Tumor size (mm^3)=(W×W)/2×L (L=length and W=width), according to the methods of Geran, R. I., et al. “Protocols for Screening Chemical Agents and Natural Products Against Animal Tumors and Other Biological Systems”, Third Edition, Cancer Chemother. Rep., 3, 1-104 (1972). Results are expressed as percent inhibition, according to the formula: Inhibition Growth (%)=[100-{(% Growth of Treated/% Growth of Control)×100}]. The flank site of tumor implantation provides reproducible dose/response effects for a variety of chemotherapeutic agents, and the method of measurement (tumor diameter) is a reliable method for assessing tumor growth rates.
(§1) Study Design: Exponentially growing MDA-MB-453 cells (DMEM/F12 with 10% FBS, and pen/strep [Gibco]) were harvested and inoculated SC (5 million cells/animal) into female athymic mice. MDA-MB-453 tumor bearing mice (˜100 mm^3 in size, N=64) were randomized in 8 groups consisting 8 animals each. Animals were treated with vehicle (PO, QD or BID) or the test compound (PO, QD or BID) as described in Table 6. The tumor measurements and body weight changes were obtained on days 1, 3, 7, 10, 14, 17, 21, 24, and 29. Tumor volume was calculated by the following formula: Tumor volume (mm^3)═(W×W)/2×L (L=length & W=width). Blood samples (˜50 μl) were isolated at 0.5, 1, 2, 4 and 8 hrs after dosing on day 29 for PK-analysis. Tumors were isolated at 0.5 hr post-dosing on day 29 for PD-analysis by ELISA.
Statistical Analysis: ANOVA was conducted on the percentage growth data and planned comparisons were conducted between like-doses. The data were log transformed for the analysis due to the distribution of the values. The Dunnett-Tamahane procedure was used for the multiple comparison analysis.

[3] = molecular target: erbB2 receptor autophosphorylation (Homo sapiens, UniProt P04626); assay: p-erbB2 reduction in MDA-MB-453 tumors by ELISA; assay type: in vivo
Description: as §1

erbB2 receptor autophosphorylation, sequence (P04626 23-1255): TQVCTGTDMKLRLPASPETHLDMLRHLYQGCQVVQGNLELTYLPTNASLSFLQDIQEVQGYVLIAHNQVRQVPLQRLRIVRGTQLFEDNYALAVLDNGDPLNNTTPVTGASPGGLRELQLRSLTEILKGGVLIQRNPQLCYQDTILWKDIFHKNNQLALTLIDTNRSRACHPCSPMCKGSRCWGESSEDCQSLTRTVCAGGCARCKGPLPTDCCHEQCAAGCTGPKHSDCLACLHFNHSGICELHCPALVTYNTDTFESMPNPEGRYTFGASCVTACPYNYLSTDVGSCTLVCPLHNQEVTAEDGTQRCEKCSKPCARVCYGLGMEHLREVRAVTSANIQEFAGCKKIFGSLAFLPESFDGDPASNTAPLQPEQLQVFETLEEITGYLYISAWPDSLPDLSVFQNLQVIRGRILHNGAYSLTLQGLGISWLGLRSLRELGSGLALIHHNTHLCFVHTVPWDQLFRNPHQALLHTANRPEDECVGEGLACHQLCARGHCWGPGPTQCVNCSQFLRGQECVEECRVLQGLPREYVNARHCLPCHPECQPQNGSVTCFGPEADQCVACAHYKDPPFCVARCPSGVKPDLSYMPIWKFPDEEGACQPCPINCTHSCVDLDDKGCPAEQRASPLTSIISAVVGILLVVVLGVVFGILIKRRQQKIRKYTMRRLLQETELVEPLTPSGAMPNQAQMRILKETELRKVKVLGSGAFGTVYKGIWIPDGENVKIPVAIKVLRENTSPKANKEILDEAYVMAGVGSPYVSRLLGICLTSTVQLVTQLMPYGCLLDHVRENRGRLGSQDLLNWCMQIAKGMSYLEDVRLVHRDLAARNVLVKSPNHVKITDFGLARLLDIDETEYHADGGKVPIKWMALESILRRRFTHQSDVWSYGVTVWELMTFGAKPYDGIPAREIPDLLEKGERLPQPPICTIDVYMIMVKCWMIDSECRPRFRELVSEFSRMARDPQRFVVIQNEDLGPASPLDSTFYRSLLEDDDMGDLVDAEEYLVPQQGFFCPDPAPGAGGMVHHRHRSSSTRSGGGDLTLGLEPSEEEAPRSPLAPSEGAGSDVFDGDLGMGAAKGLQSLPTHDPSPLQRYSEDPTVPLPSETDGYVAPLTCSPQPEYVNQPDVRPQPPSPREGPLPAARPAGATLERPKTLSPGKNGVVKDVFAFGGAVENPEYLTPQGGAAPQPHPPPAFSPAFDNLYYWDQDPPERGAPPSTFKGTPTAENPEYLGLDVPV

COCC(=O)NC/C=C/c1ccc2ncnc(Nc3ccc(Oc4ccc(C)nc4)c(C)c3)c2c1 [Test Compound, E-2-Methoxy-N-(3-{4-(3-methyl-4-(6-methyl-pyridin-3-yloxy)-phenylamino)-quinazolin-6-yl}-allyl)-acetamide]
average body weight Day 1 ([1]; BID 25 mg/kg): 24 g
average body weight Day 18 ([1]; BID 25 mg/kg): 26 g
average body weight Day 1 ([1]; BID 50 mg/kg): 24 g
average body weight Day 18 ([1]; BID 50 mg/kg): 25 g
average body weight Day 1 ([1]; BID 100 mg/kg): 23 g
average body weight Day 18 ([1]; BID 100 mg/kg): 23 g
average body weight Day 1 ([1]; QD 50 mg/kg): 23 g
average body weight Day 18 ([1]; QD 50 mg/kg): 24 g
average body weight Day 1 ([1]; QD 100 mg/kg): 23 g
average body weight Day 18 ([1]; QD 100 mg/kg): 25 g
average body weight Day 1 ([1]; QD 200 mg/kg): 23 g
average body weight Day 18 ([1]; QD 200 mg/kg): 24 g
tolerability, body weight loss or animal mortality ([1]; QD or BID, 18 days): well tolerated and there was no body weight loss or animal mortality
% Growth inhibition ([2]; BID 25 mg/kg (Total Daily Dose = 50 mg/kg)): 19%
Tumor volume Day 1 (Mean ± SE) ([2]; BID 25 mg/kg): 107 ± 4 mm^3
Tumor volume Day 29 (Mean ± SE) ([2]; BID 25 mg/kg): 252 ± 24 mm^3
% Growth inhibition ([2]; BID 50 mg/kg (Total Daily Dose = 100 mg/kg)): 66%
Tumor volume Day 1 (Mean ± SE) ([2]; BID 50 mg/kg): 107 ± 4 mm^3
Tumor volume Day 29 (Mean ± SE) ([2]; BID 50 mg/kg): 164 ± 13 mm^3
% Growth inhibition ([2]; BID 100 mg/kg (Total Daily Dose = 200 mg/kg)): 83%
Tumor volume Day 1 (Mean ± SE) ([2]; BID 100 mg/kg): 107 ± 4 mm^3
Tumor volume Day 29 (Mean ± SE) ([2]; BID 100 mg/kg): 137 ± 6 mm^3
% Growth inhibition ([2]; QD 50 mg/kg): 38%
Tumor volume Day 1 (Mean ± SE) ([2]; QD 50 mg/kg): 107 ± 4 mm^3
Tumor volume Day 29 (Mean ± SE) ([2]; QD 50 mg/kg): 213 ± 19 mm^3
% Growth inhibition ([2]; QD 100 mg/kg): 63%
Tumor volume Day 1 (Mean ± SE) ([2]; QD 100 mg/kg): 107 ± 4 mm^3
Tumor volume Day 29 (Mean ± SE) ([2]; QD 100 mg/kg): 175 ± 14 mm^3
% Growth inhibition ([2]; QD 200 mg/kg): 100%
Tumor volume Day 1 (Mean ± SE) ([2]; QD 200 mg/kg): 107 ± 4 mm^3
Tumor volume Day 29 (Mean ± SE) ([2]; QD 200 mg/kg): 108 ± 9 mm^3
inhibition in vivo at 25 mg/kg ([3]; MDA-MB-453, po, 0.5 h, PO, BID 25 mg/kg (Total Daily Dose = 50 mg/kg), 0.5 hr post-dosing on day 29): 69%
inhibition in vivo at 50 mg/kg ([3]; MDA-MB-453, po, 0.5 h, PO, BID 50 mg/kg (Total Daily Dose = 100 mg/kg), 0.5 hr post-dosing on day 29): 75%
inhibition in vivo at 100 mg/kg ([3]; MDA-MB-453, po, 0.5 h, PO, BID 100 mg/kg (Total Daily Dose = 200 mg/kg), 0.5 hr post-dosing on day 29): 79%
inhibition in vivo at 50 mg/kg ([3]; MDA-MB-453, po, 0.5 h, PO, QD 50 mg/kg, 0.5 hr post-dosing on day 29): 78%
inhibition in vivo at 100 mg/kg ([3]; MDA-MB-453, po, 0.5 h, PO, QD 100 mg/kg, 0.5 hr post-dosing on day 29): 88%
inhibition in vivo at 200 mg/kg ([3]; MDA-MB-453, po, 0.5 h, PO, QD 200 mg/kg, 0.5 hr post-dosing on day 29): 92%
reduction of p-erbB2 ([3]; span over QD (50-200 mg/kg) and BID (25-100 mg/kg) dosings): 69-92%

From US20050119288A1, “Dosing schedule for a novel anticancer agent” (Pfizer Inc, priority 2003, published 2005)
